Legend:
mouse model of NASH = test: Mouse model of NASH (CD-HFD); assay type: in vivo; conditions: 10 mg/kg daily i.p. for 2 weeks
Protocol: FIGS. 20A-20D show the efficacy of F-4N in a mouse model of NASH. FIG. 20A) Study design and weight changes of mice treated with 10 mg/kg F-4N daily i.p. for 2 weeks. FIG. 20B). Representative H&E and Sirius Red liver histology. FIG. 20C) Objective automated quantification of Sirius Red staining. FIG. 20D) Liver weight and colon weight changes. N=5 chow diet, N=10 holine deficient-high fat diet (CD-HFD) vehicle, N=10 CD-HFD+F-4N.
Mice in a mouse model of NASH were treated with 10 mg/kg F-4N daily i.p. for 2 weeks (FIG. 20A). Livers from treated mice were analyzed by H&E and Sirius Red staining (FIG. 20B). Sirius Red staining was quantified (FIG. 20C). Liver weight and colon weight changes were also assessed (FIG. 20D).

[1] = Stability in mouse plasma; assay type: in vitro ADME
Protocol: The stability of F-4N in plasma was assessed (FIG. 27). Compounds were incubated with human or mouse plasma. The percent of F-4N recovered was analyzed by LC-MS. Warfarin was used as a control for stable compound, and propantheline was used as a control for an unstable compound. Analysis was performed by Cyprotex (Framingham, MA).

[2] = system: Human adult lung fibroblasts (passage 3); test: Fibroblast activation (TGFβ, alpha-smooth muscle actin); assay type: cell-based; conditions: Homo sapiens, Fibroblast; +2 ng/mL TGFβ, 96 hours, alpha-smooth muscle actin intensity
Protocol: Human adult lung fibroblasts (passage 3) were plated into 96-well plates and treated with the indicated compound (6-point dose-response) +2 ng/mL TGFβ to stimulated fibroblast activation. Cells were incubated for 96 hours, fixed using 4% PFA, permeabilized using 0.25% triton x-100, and stained using a primary antibody recognizing alpha-smooth muscle actin and a secondary fluorescent conjugated antibody, and DAPI. Cells were then imaged using a 4× objective on a Cytation5 microscope and alpha-smooth muscle actin intensity was quantified using automated software (Biotek Gen5). Data shown are the IC50 values for each compounds efficacy at reducing expression of alpha-smooth muscle actin, calculated from the calculated dose-response curves, N=3 independent.

[3] = Levels of unbound compound in plasma and liver of mice (LC-MS); assay type: in vivo, mouse; conditions: 2 hours and 8 hours after the final dose, oral gavage 7 days
Protocol: Levels of F-4N in the plasma and liver of mice following F-4N exposure were examined (FIG. 26). Plasma and liver tissue was collected 2 hours and 8 hours after the final dose from the mice subjected to the protocol described in FIG. 24A. Levels of unbound (free) F-4N were analyzed by Cyprotex (Framingham, MA) using LC-MS.

Mdr2-/- mice = test: Mdr2-/- mouse model of PSC with established liver fibrosis, oral treatment; assay type: in vivo; conditions: 4 weeks
Description: 20 Mdr2^−/− mice (10 males, 10 females) approximately 7 months old with established liver fibrosis were assigned to receive either F-4N or vehicle ([…]) for 4 weeks. At the end of treatment, mice were sacrificed, and livers were collected to assess liver inflammation and fibrosis.

DRAK1 = target: T1, DRAK1 (Homo sapiens, UniProt Q9UEE5); test: DRAK1 kinase activity assay (radiolabeled ATP, Reaction Biology); assay type: biochemical; conditions: FIG. 30
T1 construct: purchased Reaction Biology
T1 sequence (Q9UEE5 1-414): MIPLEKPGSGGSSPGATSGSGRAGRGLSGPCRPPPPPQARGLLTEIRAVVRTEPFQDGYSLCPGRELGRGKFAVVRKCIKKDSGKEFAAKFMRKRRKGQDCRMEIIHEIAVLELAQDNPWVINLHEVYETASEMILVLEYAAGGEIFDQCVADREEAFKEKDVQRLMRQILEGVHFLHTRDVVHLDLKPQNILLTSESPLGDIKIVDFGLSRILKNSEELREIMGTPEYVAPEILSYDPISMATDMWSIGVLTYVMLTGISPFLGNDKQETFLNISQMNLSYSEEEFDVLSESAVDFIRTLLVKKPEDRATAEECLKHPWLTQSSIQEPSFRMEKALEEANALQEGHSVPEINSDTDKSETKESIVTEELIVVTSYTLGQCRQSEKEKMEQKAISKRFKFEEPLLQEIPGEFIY
Protocol: DRAK1 kinase activity was also assessed. […] A DRAK1 kinase activity was performed by Reaction Biology. DRAK1 kinase activity was measured and plotted (FIG. 30).

[4] = Microsomal stability, human liver derived microsomes; assay type: in vitro ADME
Protocol: The microsomal stability of F-4N was also assessed (FIG. 28). Compounds were incubated with human or mouse liver derived microsomes. The percent of F-4N recovered was analyzed by LC-MS. Verapamil was used as a control for a rapidly degraded compound. Analysis was performed by Cyprotex (Framingham, MA).

## O=c1c(O)c(-c2ccc(OCc3ccncc3)cc2)oc2ccccc12 [F—4N]
Mouse model of NASH
  efficacy in NASH model (histology, Sirius Red, liver weight, liver function, triglyceride, hydroxyproline): effective to treat NASH
  liver expression of profibrotic genes, inflammatory genes, and Stk17b (qPCR): effectively reduced expression
[1]
  stability in plasma (percent recovered, LC-MS): stable
[2]
  EC50: 1800 nM
[3]
  levels of unbound (free) compound in plasma and liver: higher in liver than plasma
Mdr2-/- mice; oral delivery
  expression of fibrogenic genes in the liver: reduced expression
  liver fibrosis, especially parenchymal (bridging) fibrosis: Improvement of liver fibrosis
  tissue markers of liver inflammation and senescence: Significant reduction
Mdr2-/- mice; oral treatment
  liver mass: reduced
DRAK1
  DRAK1 kinase activity: can inhibit
[4]
  microsomal stability: half-life and clearance rate: in line with many clinically approved orally administered drugs
